Measurements as given in patent EP0036650A2, “Cephalosporin derivatives, process for their preparation, corresponding compositions, their use in the treatment of diseases and intermediates” (F. HOFFMANN-LA ROCHE & CO. Aktiengesellschaft, priority 1980, dated 1981).
Values after ≈ are worked out from the molar mass of the structure shown.

Tests used:
Enterobacter cloacae = assay: Minimum inhibitory concentration in vitro; type: cell-based; settings: ß-Lactamase bildende Stämme
From the text: (§1) Zum Nachweis der antimikrobiellen Wirksamkeit der erwähnten Produkte wurde das (6R,7R)-7-[2-(2-Amino-5-thiazolyl)-2-[(Z)-methoxyimino]acetamido]-3-[[(2,5-dihydro-2-methyl-5-oxo-as-triazin-3-yl)thio]methyl]-8-oxo-5-thia-1-azabicyclo[4.2.0]oct-2-en-2-carbonsäure-Natriumsalz auf seine Aktivität in vitro gegen verschiedene Krankheitserreger getestet. Nachstehend sind die entsprechenden Mindesthemmkonzentrationen (MIC; µg/ml) zusammengestellt: […]

Escherichia coli = assay: Minimum inhibitory concentration in vitro; type: cell-based; settings: ß-Lactamase bildende Stämme
From the text: as §1

Haemophilus influenzae = assay: Minimum inhibitory concentration in vitro; type: cell-based
From the text: as §1

Neisseria gonorrhoeae = assay: Minimum inhibitory concentration in vitro; type: cell-based
From the text: as §1

Proteus mirabilis = assay: Minimum inhibitory concentration in vitro; type: cell-based; settings: ß-Lactamase bildende Stämme
From the text: as §1

Proteus vulgaris = assay: Minimum inhibitory concentration in vitro; type: cell-based; settings: ß-Lactamase bildende Stämme
From the text: as §1

[1] = system: Pseudomonas aeruginosa Stamm 1; assay: Minimum inhibitory concentration in vitro; type: cell-based; settings: STAMM1, ß-Lactamase bildende Stämme
From the text: as §1

[2] = system: Pseudomonas aeruginosa Stamm 2; assay: Minimum inhibitory concentration in vitro; type: cell-based; settings: STAMM2, ß-Lactamase bildende Stämme
From the text: as §1

Serratia marcescens = assay: Minimum inhibitory concentration in vitro; type: cell-based; settings: ß-Lactamase bildende Stämme
From the text: as §1

Staphylococcus aureus = assay: Minimum inhibitory concentration in vitro; type: cell-based
From the text: as §1

Toxicity (lethal dose) = type: in vivo

`CO/N=C(\C(=O)N[C@@H]1C(=O)N2C(C(=O)O)=C(CSc3nc(=O)cnn3C)CS[C@H]12)c1csc(N)n1` [(6R,7R)-7-[2-(2-Amino-4-thiazolyl)-2-[(Z)-methoxyimino]ace-tamido]-3-[[(2,5-dihydro-2-methyl-5-oxo-as-triazin-3-yl)thio]methyl]-8-oxo-5-thia-1-azabicyclo[4.2.0]oct-2-en-2-carbonsäure-Natriumsalz] gave an MIC (Enterobacter cloacae) of 2.5 µg/mL (≈ 4.64 µM), an MIC (Escherichia coli) of 0.04 µg/mL (≈ 0.0743 µM) and an MIC (Haemophilus influenzae) of 0.02 µg/mL (≈ 0.0371 µM). The MIC (Neisseria gonorrhoeae) was 0.02 µg/mL (≈ 0.0371 µM), the MIC (Proteus mirabilis) was 0.04 µg/mL (≈ 0.0743 µM) and the MIC (Proteus vulgaris) was 0.02 µg/mL (≈ 0.0371 µM). The MIC [1] was 40 µg/mL (≈ 74.3 µM), the MIC [2] was 40 µg/mL (≈ 74.3 µM) and the MIC (Serratia marcescens) was 0.16 µg/mL (≈ 0.297 µM). It also gave an MIC (Staphylococcus aureus) of 2.5 µg/mL (≈ 4.64 µM), an LD100 (Toxicity (lethal dose); i.v.) of 1000 mg/kg and an LD100 (Toxicity (lethal dose); p.o.) of over 5000 mg/kg. For the same molecule, the LD100 (Toxicity (lethal dose); s.c.) was over 5000 mg/kg.
